From US20040229960A1, “Compositions and methods of administering tubulin binding agents for the treatment of ocular diseases” (priority 2001, published 2004)

What was measured:
pathological myopia = assay: Human patient with pathological myopia, phase I/II study; format: in vivo
Excerpt: A person was originally examined on Day One after complaining of visual obstructions in their left eye. The patient had received ocular lens implants in both eyes approximately 2 years earlier to correct for myopia. The patient was diagnosed with pathological myopia (also known as proliferative myopathy and myopic macular degeneration) and received a total of four treatments of Photodynamic Therapy (PDT, Visudyne™) in the left eye over the course of the next 8 months. […] In June 2003, the patient was diagnosed with pathological myopia in the right eye as well.
About 3 months later, the patient was enrolled in an open-label, pilot (phase I/II), dose-escalation safety and tolerability study of CA4P. At that time, the patient's best corrected visual acuity was 20/50-3 in the left eye and 20/25-3 in the right eye, as determined by a Snellen back-lit visual acuity test. […] On Day One of the study, the patient began treatment with an intravenous infusion of CA4P (free acid), at a dose of 27 mg/m2, over a 10 minute period. […] The patient received second, third, and fourth infusions of CA4P on Days 8, 15, and 22 of the study, with a maintenance of visual acuity and no active leakage in either eye.

[1] = Biodistribution of 14C-CA4P following sub-Tenon's injection; format: in vivo, New Zealand rabbits
Procedure: (§1) ^14C-CA4P (OXiGENE Inc., Watertown, Mass.) was resuspended in 100 ul volume of saline solution and injected with a 30 G needle into the right eyes of anesthesized male New Zealand rabbits (4 months old, 1.8-2.5 kg, n=3 per sample). Three different concentrations of ^14C-CA4P were tested (1, 10, 100 mg/ml) corresponding to doses of 1, 5, and 5 uCi of applied radioactivity respectively. A blank control group was also included. Rabbits were anaesthetized at 1, 6, 24, and 48 hours for blood sampling. After blood collection, the animals were euthanized by Phenobarbital injection and the treated right eyes were removed from all test animals. Ocular tissue samples were dissected from the cornea, aqueous humor, vitreous humor, choroid, or retina, placed in 20-mi glass scintillation vials, vortexed, and incubated for 24 hrs with 500 ul digesting fluid. Plasma was separated from whole blood by centrifugation (1,800 g for 10 minutes). Both ocular tissue samples and plasma were incubated at room temperature with 16 ml of Hionic Fluor™ scintillation fluid for a period of 24 hours prior to radioactivity counting. Each sample was counted for 5 minutes in a Betamatic V counter (Bio-Tek Kontron Instruments, St Quentin en Yvelines, France). The conversion of counts per minute (“cpm”) into disintegrations per minute (“dpm”) was performed automatically by the beta-counter, using calibration curves obtained from ^14C-standards and quenching curves from the respective blank matrices spiked with ^14C-standards. The concentration of drug was determined according to nanogram equivalents of CA4P (ng-Eq/g of tissue) which was calculated from the measured dpm value, the weight of the tissue specimen, and the specific activity of the drug (0.37 mCi/mg), followed by subtraction of the corresponding background value from control eye tissue. A tissue concentration of 1 uM CA4P is equal to […] tissue.

[2] = Biodistribution of 14C-CA4P following subconjunctival injection; format: in vivo, New Zealand rabbits
Procedure: as §1
Subconjuctival injections were administered at doses of 0.1, 1, 10, and 100 mg/ml. ^14C-CA4P solutions were formulated with 0.24% 10N KOH and 0.01% Benzalkonium chloride and injected in a volume of 100 ul. Animals were treated at an applied dose of 5 uCi with a single subconjunctival injection in right eyes. After delivery, the eye was gently held closed for 2-5 seconds.

[3] = Primary ocular irritation, sub-Tenon's injection; format: in vivo, rabbits; conditions: for Ocular irritation vs negative control eyes: two 0.1 ml sub-Tenon's injections, 24-72 h
Procedure: The test article, CA4P, was evaluated for primary ocular irritation. Two 0.1 ml injections of the appropriate CA4P concentration (0.1, 1.0, 10 and 100 mg/ml) were injected into the sub-Tenon's space of the right eye of two rabbits. A 0.2 ml portion of buffered saline solution was injected into the sub-Tenon's space of the left eyes to serve as a negative control. Ocular reactions were evaluated at 24, 48 and 72 hours after the sample instillation. On day 3, rabbits were euthanized and eyes were removed. The specimens were fixed and embedded, and histology was performed. Histopathologic changes in the eye tissues were recorded with an emphasis placed on examination of changes in the sub-Tenon's space.

For `COc1ccc(/C=C\c2cc(OC)c(OC)c(OC)c2)cc1OP(=O)([O-])[O-].[Na+].[Na+]` [CA4P, combretastatin A4 disodium phosphate], the “Improvement of Snellen visual acuity, left eye” value (pathological myopia; 27 mg/m2 i.v. weekly) was “improved by five lines to 20/20 vision”, the “Leakage in fluorescein angiography of either eye” value (pathological myopia; Day 8 after 27 mg/m2 i.v. infusion, active leakage in both eyes at baseline) was “No active leakage was observed” and the Cmax ([1]; aqueous humor, 1 mg/ml sub-Tenon's) was 300 nM. The Cmax ([1]; aqueous humor, 10 mg/ml sub-Tenon's) was 1800 nM, the Cmax ([1]; aqueous humor, 100 mg/ml sub-Tenon's) was 5920 nM and the Cmax ([1]; choroid, 1 mg/ml sub-Tenon's) was 1200 nM. For the same compound, the Cmax ([1]; choroid, 10 mg/ml sub-Tenon's) was 6200 nM, the Cmax ([1]; choroid, 100 mg/ml sub-Tenon's) was 861000 nM and the Cmax ([1]; plasma, 1 mg/ml sub-Tenon's) was 70 nM. For the same compound, the Cmax ([1]; plasma, 10 mg/ml sub-Tenon's) was 490 nM, the Cmax ([1]; plasma, 100 mg/ml sub-Tenon's) was 9300 nM and the “Concentration of drug delivered” value ([1]; retina and choroid, 100 and 10 mg/ml, sub-Tenon's) was greater than 1000 nM. The Cmax ([1]; retina, 1 mg/ml sub-Tenon's) was 850 nM, the Cmax ([1]; retina, 10 mg/ml sub-Tenon's) was 7100 nM and the Cmax ([1]; retina, 100 mg/ml sub-Tenon's) was 171000 nM. The “Time of highest concentrations of drug in the eye” value ([1]; sub-Tenon's injection) was “within the first hour”, the Cmax ([1]; vitreous, 1 mg/ml sub-Tenon's) was 19 nM and the Cmax ([1]; vitreous, 10 mg/ml sub-Tenon's) was 130 nM. For the same compound, the Cmax ([1]; vitreous, 100 mg/ml sub-Tenon's) was 3900 nM, the Cmax ([2]; choroid, 0.1 mg/ml subconjunctival) was 2300 nM and the Cmax ([2]; choroid, 1 mg/ml subconjunctival) was 1900 nM. For the same compound, the Cmax ([2]; choroid, 10 mg/ml subconjunctival) was 188000 nM, the Cmax ([2]; choroid, 100 mg/ml subconjunctival) was 908000 nM and the “Concentration of drug delivered” value ([2]; cornea, retina and choroid, 100, 10 and 1 mg/ml, subconjunctival) was greater than 1000 nM. For the same compound, the Cmax ([2]; cornea, 0.1 mg/ml subconjunctival) was 1500 nM, the Cmax ([2]; cornea, 1 mg/ml subconjunctival) was 13000 nM and the Cmax ([2]; cornea, 10 mg/ml subconjunctival) was 143000 nM. It also gave a Cmax ([2]; cornea, 100 mg/ml subconjunctival) of 761000 nM, a Cmax ([2]; plasma, 0.1 mg/ml subconjunctival) of 17 nM and a Cmax ([2]; plasma, 1 mg/ml subconjunctival) of 25 nM. For the same compound, the Cmax ([2]; plasma, 10 mg/ml subconjunctival) was 900 nM, the Cmax ([2]; plasma, 100 mg/ml subconjunctival) was 8000 nM and the Cmax ([2]; retina, 0.1 mg/ml subconjunctival) was 130 nM. It also gave a Cmax ([2]; retina, 1 mg/ml subconjunctival) of 1700 nM, a Cmax ([2]; retina, 10 mg/ml subconjunctival) of 39600 nM and a Cmax ([2]; retina, 100 mg/ml subconjunctival) of 174000 nM. For the same compound, the “Time of highest concentrations of drug in the eye” value ([2]; subconjunctival injection) was “within the first hour”, the Cmax ([2]; vitreous, 0.1 mg/ml subconjunctival) was 5 nM and the Cmax ([2]; vitreous, 1 mg/ml subconjunctival) was 20 nM. For the same compound, the Cmax ([2]; vitreous, 10 mg/ml subconjunctival) was 2100 nM, the Cmax ([2]; vitreous, 100 mg/ml subconjunctival) was 15700 nM and the “Ocular irritation vs negative control eyes” value ([3]; 0.1 and 1.0 mg/ml) was “no irritation was observed”. The “Ocular irritation vs negative control eyes” value ([3]; 10 and 100 mg/ml) was “Slight irritation was observed” and the “Irritation (Draize Scores)” value ([3]; Sub-Tenon's, 0-10 mg) was “No Irritation”.
